Earlier results as cited in patent US7445902B2, “Fluorescent nucleotide analogues” (GE Healthcare UK Limited, priority 2004, dated 2008).

Test system: receptor-Gαs/Gαi fusion proteins
Settings: binding to receptor-Gαs/Gαi fusion proteins in the expression systems employed

fold lower affinity than GppNHp (relative to GppNHp) | fold lower affinity than GTPγS (relative to GTPγS) | Substance
17-55 fold |  | BODIPY-FL-guanosine 5′-[β,γ-imido]triphosphate [B-GppNHp]
 | 1,100-5,600 fold | BODIPY-FL-guanosine 5′-[γ-thio]triphosphate [B-GTPγS]
